# Assay results taken from patent US12043670B2, “Anti-BCMA antibody-drug conjugates and methods of use” (Eisai R&D Management Co., Ltd., priority 2020, dated 2024).
# Columns and labels:
# MM1.S cells = experiment: CellTiter-Glo cell viability, MM1.S; format: cell-based, human; settings: MM1.S, 96 h
# MM1.R cells = experiment: CellTiter-Glo cell viability, MM1.R; format: cell-based, human; settings: 96 h
# MOLP8 cells = experiment: CellTiter-Glo cell viability, MOLP8; format: cell-based, human
# [1] = tested on: splicing of Ad2.2 pre-mRNA in HeLa nuclear extract; experiment: In vitro splicing (IVS), qPCR readout, Ad2.2 substrate; format: biochemical
# Experimental: (§1) To evaluate payload activity in a cell-free system, an in vitro splicing assay was performed. The payloads were incubated with nuclear extracts and pre-mRNA substrate minigenes.
# (§2) HeLa nuclear extract preparation: HeLa S3 cell pellets were resuspended in hypotonic buffer (10 mM HEPES pH 7.9, 1.5 mM MgCl2, 10 mM KCl, 0.2 mM PMSF, 0.5 mM DTT) and the suspension was brought up to a total of 5 packed cell volume (PCV). After centrifugation, the supernatant was discarded, and the cells were brought up to 3 PCV with hypotonic buffer and incubated on ice for 10 min. Cells were lysed using a dounce homogenizer and then centrifuged. The supernatant was discarded, and the pellet was resuspended with ½ packed nuclear volume (PNV) of low salt buffer (20 mM HEPES pH 7.9, 1.5 mM MgCl2, 20 mM KCl, 0.2 mM EDTA, 25% glycerol, 0.2 mM PMSF, 0.5 mM DTT), followed by ½ PNV of high salt buffer (same as low salt buffer except 1.4 M KCl). The nuclei were gently mixed for 30 min before centrifuging. The supernatant (nuclear extract) was then dialyzed into storage buffer (20 mM HEPES pH 7.9, 100 mM KCl, 0.2 mM EDTA, 20% glycerol, 0.2 mM PMSF, 0.5 mM DTT). Protein concentration was determined using NanoDrop 8000 UV-Vis spectrophotometer (ThermoFisher Scientific). […]
# SF3b complex = molecular target: T1, SF3b complex (Homo sapiens, UniProt O75533+Q7RTV0); experiment: SF3B1 binding / scintillation proximity assay (SPA); settings: competition with 2.5 nM [3H]-pladienolide B probe
# T1 construct: endogenous in cells; host or cells: nuclear extracts
# Experimental: A scintillation proximity assay was performed to measure the binding affinity of compounds (“payloads”) to the SF3b complex. Batch immobilization of anti-SF3B1 antibody (MBL) to anti-mouse PVT SPA scintillation beads (PerkinElmer) was prepared. For every 2.5 mg of nuclear extracts, 5 μg of anti-SF3B1 antibody and 1.5 mg of beads were mixed in 150 μL PBS. The antibody-bead mixture was incubated for 30 min at room temperature (RT) and centrifuged at 18,000 g for 5 min. 150 μL PBS was used to resuspend every 1.5 mg antibody-bead mixture. The beads were suspended and added to the prepared nuclear extracts. The slurry was incubated for 2 hours at 4° C. with gentle mixing. The beads were then collected by centrifuging at 18,000 g for 5 min, and washed twice with PBS+0.1% Triton X-100. After a final centrifugation step, every 1.5 mg of beads was suspended with 150 μL of PBS. SF3b complexes were tested for [^3H]-labeled pladienolide B probe binding ([^3H]-PB), synthesized as previously described (Kotake et al. (2007) Nat Chem Biol. 3(9):570-5). 100 μL binding reactions were prepared with 50 μL bead slurry and by adding varying concentrations of PB or PB-OH, and after 30 min pre-incubation, 2.5 nM of [^3H]-PB was added. The mixture was incubated for 30 min, and luminescence signals were read using a MicroBeta2 Plate Counter (PerkinElmer). […]
# Caco-2 permeability = format: in vitro ADME; settings: human
# Experimental: Caco-2 cells were cultured for 21 days in transwell 24-well plates at 37° C., 95% humidity, 5% CO2. Integrity of cell monolayer was confirmed by TEER (transepithelial electrical resistance) and Lucifer yellow. Payloads were spiked in duplicate at 10 μM, separately, on both sides of the cell monolayer. Permeability rates from the apical to basolateral (A-B) direction and the basolateral to apical (B-A) direction were determined by sampling aliquots from both chambers immediately after treatment (t=0) and following incubation for 2 hours. Samples were protein precipitated with organic solvent containing internal standard and analyzed by LC-MS/MS (SCIEX; API 5500). The area ratio responses of payload/internal standard over time in both directions were used to generate permeability (cm/sec) values. Efflux ratio was calculated by dividing B-A/A-B. Control compounds for low and high permeability and efflux behaved as expected.
# PAMPA permeability = format: in vitro ADME; settings: read-out: Stability, Mean, Perm PAMPA
# [2] = tested on: splicing of Ad2.1 pre-mRNA in HeLa nuclear extract; experiment: In vitro splicing (IVS), qPCR readout, Ad2.1 substrate; format: biochemical
# Experimental: as §1, §2
# OPM2 cells = experiment: CellTiter-Glo cell viability, OPM2 (normal serum); format: cell-based, human
smiles,measurement,setting,value
"CC[C@H](O)[C@@H](C)[C@H]1O[C@@H]1C[C@@](C)(O)/C=C/C=C(\C)[C@H]1OC(=O)C[C@H](O)CC[C@@](C)(OC(C)=O)[C@@H](OC(=O)N2CCNCC2)/C=C/[C@@H]1C [D2, (2S,3S,6S,7R,10R,E)-7-acetoxy-10-hydroxy-2-((R,2E,4E)-6-hydroxy-7-((2R,3R)-3-((2R,3S)-3-hydroxypentan-2-yl)oxiran-2-yl)-6-methylhepta-2,4-dien-2-yl)-3,7-dimethyl-12-oxooxacyclododec-4-en-6-ylpiperazine-1-carboxylate]",GI50,"MM1.S cells; Homo sapiens, read-out: CTGlo Mean GI50 MM1.S 96 h",1.69 nM
same,CTGlo Mean LD50 MM1.S 96 h,MM1.S cells; payload alone,7.74 nM
same,GI50,"MM1.R cells; Homo sapiens, MM.1R, read-out: CTGlo Mean GI50 MM1.R 96 h",7.59 nM
same,CTGlo Mean LD50 MM1.R 96 h,"MM1.R cells; payload alone, MM1.R",21.4 nM
same,GI50,"MOLP8 cells; Homo sapiens, MOLP-8, 96 h, read-out: CTGlo Mean GI50 MOLP8 96 h",1.15 nM
same,CTGlo Mean LD50 MOLP8 96 h,"MOLP8 cells; payload alone, MOLP8, 96 h",12.99 nM
same,IC50,[1],119 nM
same,IC50,SF3b complex,12.6 nM
same,"efflux ratio at 2 h, 10 μM",Caco-2 permeability; B-A/A-B,9.4
same,"Papp A→B at 2 h, 10 μM","Caco-2 permeability; apical to basolateral, 10 μM, 2 hours, read-out: Permeability, Mean, Caco-2 A-B Perm",9.4 nm/s
same,"Papp B→A at 2 h, 10 μM","Caco-2 permeability; basolateral to apical, 10 μM, 2 hours, read-out: Permeability, Mean, Caco-2 B-A Perm",1 nm/s
same,Papp,PAMPA permeability,< 1 nm/s
same,IC50,[2],27.3 nM
same,GI50,"OPM2 cells; Homo sapiens, OPM-2, 96 h, read-out: CTGlo Mean GI50 OPM2 96 h",1.69 nM
same,CTGlo Mean LD50 OPM2 96 h,"OPM2 cells; payload alone, OPM2, 96 h",7.74 nM
